Measured values reported in patent EP4389762A1, “INHIBITORS OF DUX4 ACTIVITY AND THEIR USE IN THERAPY” (Ospedale San Raffaele S.r.l., priority 2022, dated 2024).

Experiments:
[1] = biological target: T1, DUX4 dbd (Homo sapiens, UniProt Q9UBX2); assay: His pull-down assay; format: binding; conditions: purified His-DUX4 dbd immobilized, biotinylated MATR3 peptides
T1 construct: employing pETGB1-6xHis-DUX4 dbd (residues 1-159) vector as template; GB1; made in house; host or cells: E. coli Rosetta2(DE3) pLys
Method: To test the interaction between 6xHis-DUX4 dbd and MATR3 synthetic peptides (prepared by CASLO; Lot No.: P230321-01-01, P230321-01-02, Lot No.: P230321-01-03), 40 pmol of 6xHis-DUX4 dbd were immobilized on His-Select Nickel Affinity gel beads (Sigma) incubating 1 hour on rotation at 4°C in IPP100 buffer (10 mM Tris-HCl pH 8.00, 100 mM NaCl, 0.1% NP-40) supplemented with 0,1 mM PMSF. Next, 4 pmol of MATR3 synthetic peptides were added incubating on rotation for 2 hours at 4°C. MATR3 peptides were incubated with the beads as negative control. Beads were washed 4 times with IPP100 buffer, boiled in 50 µl of Laemmli Sample Buffer (Bio-Rad), centrifuged and the eluted proteins were collected. Samples were stored at -20°C. Pull-down samples were boiled at 95°C for 5 minutes and bounded fractions (10%) were loaded on 15% SDS-Page acrylamide gel. The immunoblotting was performed following the procedure reported above but the wet transfer was performed at 200mA for 1.5 hours (instead of 2 hours) at 4°C. To test the interaction between DUX4 dbd and 6xHis-SUM03-MATR3(210-255), 40 pmol of 6xHis-SUMO3-MATR3(210-255) were immobilized on His-Select Nickel Affinity gel beads (Sigma) incubating 1 hour on rotation at 4°C in IPP100 buffer (10 mM Tris-HCl pH 8.00, 100 mM NaCl, 0.1% NP-40) supplemented with 0,1 mM PMSF. Next, 40 pmol of DUX4(15-155) without tag were added incubating on rotation for 2 hours at 4°C. DUX4(15-155) alone was incubated with the beads as negative control. Beads were washed 4 times with IPP100 buffer, boiled in 50 µl of Laemmli Sample Buffer (Bio-Rad), centrifuged and the eluted proteins were collected. Samples were stored at -20°C. Pull-down samples were boiled at 95°C for 5 minutes and bounded fractions (10%) were loaded on two identical 15% SDS-Page acrylamide gel. The immunoblotting was performed following the procedure reported below.

[2] = biological target: T2, 6xHis-DUX4 dbd (UniProt Q9UBX2 1-159); assay: GST pull-down with purified recombinant proteins
T2 construct: range 1-159; Expressed in E. coli from pET-GB1 and purified on nickel beads; The limits 1-159 come from the phrase pETGB1-6xHis-DUX4 dbd (residues 1-159); also called DUX4 dbd (HD1+HD2); not shown: 6xHis tag and GB1 solubility peptide of vector pET-GB1
T2 sequence (Q9UBX2 1-159): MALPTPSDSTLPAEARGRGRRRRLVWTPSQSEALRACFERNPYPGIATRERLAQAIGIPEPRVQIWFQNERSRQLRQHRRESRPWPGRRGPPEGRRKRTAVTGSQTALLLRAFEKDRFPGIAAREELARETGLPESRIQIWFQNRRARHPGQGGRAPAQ

T1 sequence (Q9UBX2 1-159): as above

| Molecule | interaction with DUX4 dbd (pulldown, synthetic peptides) [1] | interaction with DUX4 dbd (pulldown, synthetic peptides) ([1]; listed as Pep 3) | interaction with DUX4 dbd (pulldown, synthetic peptides) ([1]; listed as Pep 2) | binding result [2] |
| --- | --- | --- | --- | --- |
| (Biotin)- ERCRDDSFFGETSHNYHKFDSEYERMGRGPG PLQERSLFEKKRGAPPSSNIEDFHGLLPK -NH2 [Peptide 3] | interacted with DUX4 dbd | interact with DUX4 dbd | – | – |
| (Biotin)- SFDDRGPSLNPVLDYDHGSRSQESGYYDRMD YEDDRLRDGERCRDDSFFGETSHNYHKFDS-NH2 [Peptide 2] | interacted with DUX4 dbd | – | interact with DUX4 dbd | – |
| GST-MATR3(2-151) (other, not shown: GST tag and thrombin site of vector pGEX-2tk) SKSFQQSSLSRDSQGHGRDLSAAGIGLLAAATQSLSMPASLGRMNQGTARLASLMNLGMSSSLNQQGAHSALSSASTSSHNLQSIFNIGSRGPLPLSSQHRGDADQASNILASFGLSARDLDELSRYPEDKITPENLPQILLQLKRRRTE | – | – | – | no binding (tested: 40 pmol each) |
